Results published in patent publication US7326698B2, “Prostaglandin analogs” (Allergan, Inc., priority 2004, dated 2008).
pIC50: −log10 of the molar value.

Key:
[1] = biological target: T1, hEP4/Gqs5 (Homo sapiens, UniProt P35408); test: FLIPR calcium signal, HEK-293(EBNA) cells; assay type: cell-based; details: read-out: Functional Data (EC50 in nM) hEP4
T1 construct: expressed in transfected cells; host or cells: HEK-293(EBNA)
Experimental: (§1) Methods for FLIPR™ Studies
(§2) HEK-293(EBNA) cells, stably expressing one type or subtype of recombinant human prostaglandin receptors (prostaglandin receptors expressed: hDP/Gqs5; hEP1; hEP2/Gqs5; hEP3A/Gqi5; hEP4/Gqs5; hFP; hIP; hTP), are cultured in 100 mm culture dishes in high-glucose DMEM medium containing 10% fetal bovine serum, 2 mM 1-glutamine, 250 μg/ml geneticin (G418) and 200 μg/ml hygromycin B as selection markers, and 100 units/ml penicillin G, 100 μg/ml streptomycin and 0.25 μg/ml amphotericin B.
(§3) (b) Calcium Signal Studies On the FLIPR™
(§4) Cells are seeded at a density of 5×10^4 cells per well in Biocoat® Poly-D-lysine-coated black-wall, clear-bottom 96-well plates (Becton-Dickinson) and allowed to attach overnight in an incubator at 37° C. Cells are then washed two times with HBSS-HEPES buffer (Hanks Balanced Salt Solution without bicarbonate and phenol red, 20 mM HEPES, pH 7.4) using a Denley Cellwash plate washer (Labsystems). After 45 minutes of dye-loading in the dark, using the calcium-sensitive dye Fluo-4 AM at a final concentration of 2 μM, plates are washed four times with HBSS-HEPES buffer to remove excess dye leaving 100 μl in each well. Plates are re-equilibrated to 37° C. for a few minutes.
(§5) Cells are excited with an Argon laser at 488 nm, and emission is measured through a 510-570 nm bandwidth emission filter (FLIPR™, Molecular Devices, Sunnyvale, Calif.). Drug solution is added in a 50 μl volume to each well to give the desired final concentration. The peak increase in fluorescence intensity is recorded for each well. On each plate, four wells each serve as negative (HBSS-HEPES buffer) and positive controls (standard agonists: BW245C (hDP); PGE2 (hEP1; hEP2/Gqs5; hEP3A/Gqi5; hEP4/Gqs5); PGF2α, (hFP); carbacyclin (hIP); U-46619 (hTP), depending on receptor). The peak fluorescence change in each drug-containing well is then expressed relative to the controls.
(§6) Compounds are tested in a high-throughput (HTS) or concentration-response (CoRe) format. In the HTS format, forty-four compounds per plate are examined in duplicates at a concentration of 10^−5 M. To generate concentration-response curves, four compounds per plate are tested in duplicates in a concentration range between 10^−5 and 10^−11 M. The duplicate values are averaged. In either, HTS or CoRe format each compound is tested on at least 3 separate plates using cells from different passages to give an n≧3.

[2] = biological target: T2, hTP (Homo sapiens, UniProt P21731); test: FLIPR calcium signal, HEK-293(EBNA) cells; assay type: cell-based; details: read-out: Functional Data (EC50 in nM) hTP
T2 construct: expressed in transfected cells; host or cells: HEK-293(EBNA)
T2 sequence (P21731 1-343): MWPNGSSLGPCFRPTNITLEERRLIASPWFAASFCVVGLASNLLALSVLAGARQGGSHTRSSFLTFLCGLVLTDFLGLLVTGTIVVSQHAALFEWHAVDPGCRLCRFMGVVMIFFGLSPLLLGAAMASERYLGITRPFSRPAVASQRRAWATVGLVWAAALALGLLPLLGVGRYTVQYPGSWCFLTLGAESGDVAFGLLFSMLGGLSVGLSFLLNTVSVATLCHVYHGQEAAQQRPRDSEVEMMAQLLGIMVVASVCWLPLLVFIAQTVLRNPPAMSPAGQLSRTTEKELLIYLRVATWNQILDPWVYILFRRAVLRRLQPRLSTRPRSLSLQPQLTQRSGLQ
Experimental: as §1, §2, §3, §4, §5, §6

[3] = biological target: T3, hEP4 (Homo sapiens, UniProt P35408); test: Radioligand binding, HEK-293 cells stably expressing EP4 receptor; details: competition vs 5 nM [3H]-PGE2
T3 construct: expressed in transfected cells; host or cells: HEK-293 (membrane fraction)
Experimental: Cells Stably Expressing EP1, EP2, EP4 and FP Receptors
HEK-293 cells stably expressing the human or feline FP receptor, or EP1, EP2, or EP4 receptors are washed with TME buffer, scraped from the bottom of the flasks, and homogenized for 30 sec using a Brinkman PT 10/35 polytron. TME buffer is added to achieve a final 40 ml volume in the centrifuge tubes (the composition of TME is 100 mM TRIS base, 20 mM MgCl2, […]; 10N HCl is added to achieve a pH of 7.4).
The cell homogenate is centrifuged at 19000 r.p.m. for 20 min at 4° C. using a Beckman Ti-60 rotor. The resultant pellet is resuspended in TME buffer to give a final 1 mg/ml protein concentration, as determined by Biorad assay. Radioligand binding competition assays vs. [^3H-]17-phenyl PGF2[…](5 nM) are performed in a 100 μl volume for 60 min. Binding reactions are started by adding plasma membrane fraction. The reaction is terminated by the addition of 4 ml ice-cold TRIS-HCl buffer and rapid filtration through glass fiber GF/B filters using a Brandel cell harvester. The filters are washed 3 times with ice-cold buffer and oven dried for one hour.
[^3H-] PGE2 (specific activity 180 Ci mmol) is used as the radioligand for EP receptors. [^3H] 17-phenyl PGF2[…]is employed for FP receptor binding studies. […] 17-phenyl PGF2[…]and non-specific binding determined with 10^−5M of unlabeled PGE2, or 17-phenyl PGF2[…], according to receptor subtype studied.

[4] = biological target: T4, hEP3A/Gqi5 (Homo sapiens, UniProt P43115); test: FLIPR calcium signal, HEK-293(EBNA) cells; assay type: cell-based; details: read-out: Functional Data (EC50 in nM) hEP3A
T4 construct: expressed in transfected cells; host or cells: HEK-293(EBNA)
T4 sequence (P43115 1-390): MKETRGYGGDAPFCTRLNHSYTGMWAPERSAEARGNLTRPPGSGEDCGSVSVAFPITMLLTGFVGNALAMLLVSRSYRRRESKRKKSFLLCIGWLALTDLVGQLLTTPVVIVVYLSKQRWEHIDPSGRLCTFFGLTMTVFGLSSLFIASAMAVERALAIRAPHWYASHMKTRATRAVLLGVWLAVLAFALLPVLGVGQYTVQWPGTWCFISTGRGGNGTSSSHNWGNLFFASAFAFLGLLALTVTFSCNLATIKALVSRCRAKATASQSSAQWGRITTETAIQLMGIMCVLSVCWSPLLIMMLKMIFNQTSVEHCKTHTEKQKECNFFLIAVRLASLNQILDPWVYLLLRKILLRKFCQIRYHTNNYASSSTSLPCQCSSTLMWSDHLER
Experimental: as §1, §2, §3, §4, §5, §6

[5] = biological target: T5, hIP (Homo sapiens, UniProt P43119); test: FLIPR calcium signal, HEK-293(EBNA) cells; assay type: cell-based; details: read-out: Functional Data (EC50 in nM) hIP
T5 construct: expressed in transfected cells; host or cells: HEK-293(EBNA)
Experimental: as §1, §2, §3, §4, §5, §6

T1 sequence (P35408 whole entry): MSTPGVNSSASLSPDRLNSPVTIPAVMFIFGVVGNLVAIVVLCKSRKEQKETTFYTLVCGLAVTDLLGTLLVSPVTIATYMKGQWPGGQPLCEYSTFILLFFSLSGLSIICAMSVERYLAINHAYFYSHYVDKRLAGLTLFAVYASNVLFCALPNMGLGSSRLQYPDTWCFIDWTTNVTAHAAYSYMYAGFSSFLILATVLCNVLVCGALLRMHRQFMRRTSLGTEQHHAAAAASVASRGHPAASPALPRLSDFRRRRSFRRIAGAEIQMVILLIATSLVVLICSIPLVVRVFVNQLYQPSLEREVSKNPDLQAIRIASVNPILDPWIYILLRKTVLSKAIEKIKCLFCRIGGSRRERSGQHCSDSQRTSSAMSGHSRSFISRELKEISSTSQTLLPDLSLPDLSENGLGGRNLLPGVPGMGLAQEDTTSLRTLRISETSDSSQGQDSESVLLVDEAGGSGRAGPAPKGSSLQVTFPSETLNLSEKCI
T3 sequence (P35408 whole entry): as above
T5 sequence (P43119 whole entry): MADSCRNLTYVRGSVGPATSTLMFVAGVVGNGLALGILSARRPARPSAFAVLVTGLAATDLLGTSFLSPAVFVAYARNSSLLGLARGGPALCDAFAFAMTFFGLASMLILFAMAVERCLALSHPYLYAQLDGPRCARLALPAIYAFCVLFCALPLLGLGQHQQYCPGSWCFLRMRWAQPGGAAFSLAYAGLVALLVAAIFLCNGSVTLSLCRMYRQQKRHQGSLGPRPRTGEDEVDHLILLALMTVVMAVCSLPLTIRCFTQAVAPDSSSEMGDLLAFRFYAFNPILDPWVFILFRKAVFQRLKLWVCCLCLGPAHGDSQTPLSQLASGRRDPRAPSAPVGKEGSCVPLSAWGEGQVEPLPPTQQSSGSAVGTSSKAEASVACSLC

EC50 [1] [nM] | SMILES | other results
> 10000 | COC(=O)CCC/C=C\CN1C(=O)CCCCC1C=CC(O)Cc1ccccc1 (centres unmarked) | –
> 10000 | O=C(O)CCCC#CCN1C(=O)CCCCC1C=CC(=O)Cc1ccccc1 (centres unmarked) | –
> 10000 | COC(=O)CCCCCCN1C(=O)CCCCC1C=CC(O)Cc1ccccc1 (centres unmarked) [drawing 36] | –
> 10000 | O=C(O)CCCCCCN1C(=O)CCCCC1CCC(=O)Cc1ccccc1 (centres unmarked) | –
2390 | O=C(O)CCCC#CCN1C(=O)CCCCC1CCC(=O)Cc1ccccc1 (centres unmarked) | EC50 [2]: 41 nM
> 10000 | COC(=O)CCCC#CCN1C(=O)CCCCC1CCC(O)Cc1ccccc1 (centres unmarked) | –
3080 | COC(=O)CCCC#CCN1C(=O)CCCCC1C=CC(O)Cc1ccccc1 (centres unmarked) | –
> 10000 | COC(=O)CCCCCCN1C(=O)CCCCC1C=CC(O)Cc1ccccc1 (centres unmarked) [drawing 40] | –
13300 | COC(=O)CCC/C=C\CN1C(=O)CCCCC1CCC(=O)Cc1ccccc1 (centres unmarked) | pIC50 [3]: < 5.00
116 | O=C(O)CCC/C=C\CN1C(=O)CCCCC1CCC(O)Cc1ccccc1 (centres unmarked) | pIC50 [3]: < 5.00
2000 | O=C(O)CCCC#CCN1C(=O)CCCCC1CCC(O)Cc1ccccc1 (centres unmarked) | EC50 [2]: 112 nM
2140 | COC(=O)CCC/C=C\CN1C(=O)CCCCC1CCC(O)Cc1ccccc1 (centres unmarked) | –
> 10000 | COC(=O)CCCC#CCN1C(=O)CCCCC1C=CC(=O)Cc1ccccc1 (centres unmarked) | –
> 10000 | O=C(O)CCCCCCN1C(=O)CCCCC1C=CC(=O)Cc1ccccc1 (centres unmarked) | –
> 10000 | COC(=O)CCCC#CCN1C(=O)CCCCC1CCC(=O)Cc1ccccc1 (centres unmarked) | –
3280 | COC(=O)CCCCCCN1C(=O)CCCCC1CCC(O)Cc1ccccc1 (centres unmarked) | EC50 [4]: > 10000 nM
1230 | O=C(O)CCCC#CCN1C(=O)CCCCC1C=CC(O)Cc1ccccc1 (centres unmarked) | EC50 [2]: 278 nM
266 | O=C(O)CCC/C=C\CN1C(=O)CCCCC1C=CC(O)Cc1ccccc1 (centres unmarked) | EC50 [2]: 221 nM
> 10000 | O=C(O)CCCCCCN1C(=O)CCCCC1C=CC(O)Cc1ccccc1 (centres unmarked) | –
> 10000 | O=C(O)CCC/C=C\CN1C(=O)CCCCC1CCC(=O)Cc1ccccc1 (centres unmarked) | –
451 | O=C(O)CCCCCCN1C(=O)CCCCC1CCC(O)Cc1ccccc1 (centres unmarked) | EC50 [5]: 1640 nM; EC50 [2]: 549 nM
> 10000 | COC(=O)CCCCCCN1C(=O)CCCCC1CCC(=O)Cc1ccccc1 (centres unmarked) | –
> 10000 | COC(=O)CCCCCCN1C(=O)CCCCC1C=CC(=O)Cc1ccccc1 (centres unmarked) | –
